Paper PMC10046907 (Current Issues in Molecular Biology, 2023)
Where two headings read alike, the source gives them in different places.

How the values were obtained:
[1] = test system: phosphorylation of MEK1/2; assay: Western blot of p-MEK1/2 in influenza-infected MDCK cells; format: cell-based, canine; conditions: 20 μM, 10 h, all strains
influenza virus NP = format: cell-based
ERK phosphorylation = assay: Western blot of p-ERK in influenza-infected MDCK cells; format: cell-based, canine; conditions: 10 h; for viral-infection-induced ERK phosphorylation: 20 μM
[2] = test system: influenza RNP export from the nucleus to the cytoplasm; assay: Confocal fluorescence imaging of influenza RNP nuclear export; format: cell-based, influenza virus (H1N1); conditions: 20 μM, H1N1-infected MDCK cells, 10 h
Experimental: MDCK cells were grown on a chamber slide, pre-coated with poly-L-lysine, and the monolayers were infected with influenza virus at 0.001 MOI for 1 h. The virus was removed and replaced by EMEM containing 10 μg/mL trypsin and each compound under test. All cells were cultured for 10 h at 37 °C in a 5% CO2 atmosphere and fixed in 4% paraformaldehyde solution for 15 min at room temperature. After washing, the cells were incubated at 37 °C for 1 h with an FITC-conjugated nucleoprotein (NP)-specific monoclonal antibody against influenza virus (Millipore, MA, USA) diluted at 1:50. After washing with PBS, cells were counterstained with 500 nM propidium iodide solution. Slides were mounted using the SlowFade Gold antifade reagent (Invitrogen, CA, USA). Confocal fluorescence imaging was performed using the Carl Zeiss LSM 510 META confocal microscope (Carl Zeiss Inc., Jena, Germany).
Figure 3 18-Hydroxyferruginol (1) and 18-oxoferruginol (2) inhibit the export of the influenza virus RNP complex from the nucleus to the cytoplasm. MDCK cells were infected with H1N1 at 0.001 MOI in the presence of 0.5% DMSO, 50 μM LY294002, 20 μM 18-hydroxyferruginol (1), or 20 μM 18-oxoferruginol (2). After 10 h, the cells were fixed in 4% paraformaldehyde. After blocking, the cells were incubated with the anti-NP antibody (green). Propidium iodide was used as a nuclear counterstain (red). Scale bar = 10 µm.

[3] = molecular target: neuraminidase from A/PR/8/34 (H1N1) (Influenza A virus, UniProt P03468); assay: biochemical; design: species or system influenza A viruses
[4] = test system: A/Chicken/Korea/MS96/96 (H9N2); assay: in vitro; conditions: dog, SI (selective index, CC50/IC50)
influenza vRNA (NP gene) = format: cell-based, influenza virus
A/PR/8/34 (H1N1) [5] = conditions: dog
influenza vRNA (M gene) = format: cell-based, influenza virus; conditions: 20 μM, all virus strains, at 12 and 18 h, vs infected/untreated cells (0.5% DMSO)
influenza virus NS1 = format: cell-based
[6] = molecular target: neuraminidase from A/Chicken/Korea/MS96/96 (H9N2) (Influenza A virus (A/Chicken/Korea/MS96/96(H9N2)), UniProt Q9J458); format: biochemical, influenza A viruses; conditions: read-out: Neuraminiase IC50
[7] = test system: A/Chicken/Korea/MS96/96 (H9N2); assay: microbe, parasite or virus in culture; conditions: Influenza A virus, H9N2, MDCK, in Gallus gallus, 72 h
p-Akt (Serine 473) = assay: Western blot of p-Akt in influenza-infected MDCK cells; format: cell-based, canine; conditions: 20 μM, after viral infection, vs viral-infected/untreated cells
A/PR/8/34 (H1N1) [8] = assay: microbe, parasite or virus in culture; conditions: Influenza A virus, MDCK, 72 h
in vitro = conditions: dog
A/PR/8/34 (H1N1) [9] = assay: in vitro; conditions: dog, SI (selective index, CC50/IC50)
[10] = test system: A/Chicken/Korea/MS96/96 (H9N2); conditions: dog
A/Hong Kong/8/68 (H3N2) [11] = assay: microbe, parasite or virus in culture; conditions: Influenza A virus, H3N2, MDCK, 72 h
A/Hong Kong/8/68 (H3N2) [12] = assay: in vitro; conditions: dog, SI (selective index, CC50/IC50)
A/Hong Kong/8/68 (H3N2) [13] = conditions: dog
[14] = 20 μM, all three strains, 10 h after infection

Sequence of neuraminidase from A/PR/8/34 (H1N1) (P03468 whole entry, looked up): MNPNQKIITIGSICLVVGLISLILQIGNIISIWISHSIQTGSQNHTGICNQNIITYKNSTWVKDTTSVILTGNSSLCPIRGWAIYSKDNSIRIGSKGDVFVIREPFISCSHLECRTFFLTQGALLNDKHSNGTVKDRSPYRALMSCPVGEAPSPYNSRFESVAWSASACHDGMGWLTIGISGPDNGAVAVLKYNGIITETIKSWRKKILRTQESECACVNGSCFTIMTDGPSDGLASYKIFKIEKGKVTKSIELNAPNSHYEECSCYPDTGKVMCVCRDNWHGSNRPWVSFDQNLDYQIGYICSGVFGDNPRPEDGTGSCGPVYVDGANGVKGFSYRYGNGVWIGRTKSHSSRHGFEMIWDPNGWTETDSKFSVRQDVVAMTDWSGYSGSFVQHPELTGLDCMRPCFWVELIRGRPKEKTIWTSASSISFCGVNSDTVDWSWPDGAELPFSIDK

Row | SMILES | phosphorylation of MEK1/2 induced by infection [1] | levels of influenza virus NP (influenza virus NP) | viral-infection-induced ERK phosphorylation (ERK phosphorylation) | influenza RNP export from the nucleus to the cytoplasm [2] | toxic effect on MDCK cells (MDCK cells) | IC50 [3] [µM] | selectivity ratio [4] | reduction of influenza vRNA levels (NP gene) (influenza vRNA (NP gene); [14]) | SI (selective index, CC50/IC50) (A/PR/8/34 (H1N1) [5]) | decrease of influenza vRNA levels (M gene) (influenza vRNA (M gene)) | accumulation of viral protein NS1 (influenza virus NS1) | IC50 [6] [µM] | IC50 [7] [µM] | p-Akt levels (p-Akt (Serine 473)) | IC50 (A/PR/8/34 (H1N1) [8]) [µM] | CC50 (in vitro) [µM] | selectivity ratio (A/PR/8/34 (H1N1) [9]) | SI (selective index, CC50/IC50) [10] | IC50 (A/Hong Kong/8/68 (H3N2) [11]) [µM] | also measured
1 | CC(C)c1cc2c(cc1O)[C@@]1(C)CCC[C@@](C)(CO)[C@@H]1CC2 [Compound 1, 18-hydroxyferruginol] | inhibited | reduction in the levels of influenza virus NP | inhibited viral-infection-induced ERK phosphorylation | reduction in influenza RNP export from the nucleus to the cytoplasm | no toxic effect | > 100 | 1.79 | 2–2.5 fold | 2.61 | 65.3–91.6% | markedly decreased | 82.2 | 12.8 ± 0.1 | decreased p-Akt levels | 13.6 ± 1.4 | 35.5 ± 0.4 | 1.68 | 2.77 |  | 
2 | CC(C)c1cc2c(cc1O)[C@@]1(C)CCC[C@@](C)(C=O)[C@@H]1CC2 [Compound 2, 18-oxoferruginol] | inhibited | reduction in the levels of influenza virus NP | inhibited viral-infection-induced ERK phosphorylation | reduction in influenza RNP export from the nucleus to the cytoplasm | no toxic effect | > 100 | 3.6 | 2–3 fold | 2.25 | 60.7–92.4% | markedly decreased | > 100 | 10.8 ± 2.2 | decreased p-Akt levels | 18.3 ± 6.5 | 41.2 ± 1.5 | 2.13 | 3.81 | 29.2 ± 1.9 | selectivity ratio (A/Hong Kong/8/68 (H3N2) [12]): 1.33; SI (selective index, CC50/IC50) (A/Hong Kong/8/68 (H3N2) [13]): 1.41
3 | O=c1cc(N2CCOCC2)oc2c(-c3ccccc3)cccc12 [LY294002, reference compound] |  |  |  |  |  |  |  |  |  |  |  |  |  |  |  |  |  |  |  | ERK phosphorylation (ERK phosphorylation; 50 μM): strongly inhibited ERK phosphorylation; reduction of influenza vRNA levels (NP gene) (influenza vRNA (NP gene); 50 μM, all three strains, 10 h after infection): 3.3–5.2 fold
4 | CCOC(=O)C1=C[C@@H](OC(CC)CC)[C@H](NC(C)=O)[C@@H](N)C1 [Olseltamivir, oseltamivir, reference compound] |  |  |  |  |  |  |  |  |  |  |  |  | < 0.7 |  | 1.35 ± 1.2 | > 500 |  |  | 1.09 ± 0.5 | 
5 | COc1cccc(-c2cc(=O)c3ccccc3o2)c1N [PD98059, reference compound] |  |  |  |  |  |  |  |  |  |  |  |  |  |  |  |  |  |  |  | reduction of influenza vRNA levels (NP gene) (influenza vRNA (NP gene)): 4.3–9.1 fold
